The target of test [1] is Mitogen-activated protein kinase 8 (Homo sapiens) (UniProt P45983). As to the kind of experiment: Inhibition of JNK1alpha1 (unknown origin) at 0.1 uM relative to control.
Test [2] has as its target Protein kinase C eta type (Homo sapiens) (UniProt P24723). The test is described as follows: Inhibition of PKCeta (unknown origin) at 0.1 uM relative to control.
Test [3] concerns the target Serine/threonine-protein kinase Chk2 (Homo sapiens) (UniProt O96017). As to the kind of experiment: Inhibition of CHK2 (unknown origin) at 0.1 uM relative to control.
A further test is filed under the species Homo sapiens. As to the kind of experiment: Inhibition of KHS1 (unknown origin) at 0.1 uM relative to control.
Test [4] addresses LIM domain kinase 1 (Homo sapiens) (UniProt P53667). The test is described as follows: Inhibition of LIMK1 (unknown origin) at 0.1 uM relative to control.
Test [5] has as its target Mitogen-activated protein kinase 10 (Homo sapiens) (UniProt P53779). As to the kind of experiment: Inhibition of JNK3 (unknown origin) at 0.1 uM relative to control.
Test [6] deals with NUAK family SNF1-like kinase 1 (Homo sapiens) (UniProt O60285). As to the kind of experiment: Inhibition of ARK5 (unknown origin) at 0.1 uM relative to control.
Test [7] has as its target Tyrosine-protein kinase Fes/Fps (Homo sapiens) (UniProt P07332). As to the kind of experiment: Inhibition of Fes (unknown origin) at 0.1 uM relative to control.
The target of test [8] is Proto-oncogene tyrosine-protein kinase Src (Homo sapiens) (UniProt P12931). The test is described as follows: Inhibition of Src (unknown origin) at 0.1 uM relative to control.
Proto-oncogene tyrosine-protein kinase Src (Homo sapiens), sequence (P12931 2-536 limits assumed): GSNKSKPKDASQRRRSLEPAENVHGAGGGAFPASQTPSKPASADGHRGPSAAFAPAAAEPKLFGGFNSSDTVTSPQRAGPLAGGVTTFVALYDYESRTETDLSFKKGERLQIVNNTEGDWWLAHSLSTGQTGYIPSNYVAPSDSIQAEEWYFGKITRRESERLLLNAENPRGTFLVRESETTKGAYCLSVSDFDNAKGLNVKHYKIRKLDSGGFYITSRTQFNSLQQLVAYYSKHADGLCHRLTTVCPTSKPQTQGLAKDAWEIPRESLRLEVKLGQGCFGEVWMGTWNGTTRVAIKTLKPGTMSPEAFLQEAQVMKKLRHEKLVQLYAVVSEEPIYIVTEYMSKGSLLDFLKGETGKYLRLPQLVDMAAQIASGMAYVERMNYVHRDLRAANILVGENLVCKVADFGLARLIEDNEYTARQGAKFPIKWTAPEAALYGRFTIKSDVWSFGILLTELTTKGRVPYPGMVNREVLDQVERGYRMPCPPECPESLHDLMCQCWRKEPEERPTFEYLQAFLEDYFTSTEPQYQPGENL
Test [9] addresses Mitogen-activated protein kinase 3 (Homo sapiens) (UniProt P27361). The test is described as follows: Inhibition of ERK1 (unknown origin) at 0.1 uM relative to control.
Test [10] has as its target Serine/threonine-protein kinase PAK 3 (Homo sapiens, UniProt O75914). The test is described as follows: Inhibition of PAK3 (unknown origin) at 0.1 uM relative to control.
The target in test [11] is Leucine-rich repeat serine/threonine-protein kinase 2 (Homo sapiens) (UniProt Q5S007). As to the kind of experiment: Inhibition of LRRK2 (unknown origin) at 0.1 uM relative to control.
Test [12] deals with Serine/threonine-protein kinase WNK2 (Homo sapiens) (UniProt Q9Y3S1). As to the kind of experiment: Inhibition of WNK2 (unknown origin) at 0.1 uM relative to control.
Test [13] addresses Mitogen-activated protein kinase 14 (Homo sapiens) (UniProt Q16539). As to the kind of experiment: Inhibition of p38alpha (unknown origin) at 0.1 uM relative to control.
The target in test [14] is Phosphorylase b kinase gamma catalytic chain, skeletal muscle/heart isoform (Homo sapiens) (UniProt Q16816). As to the kind of experiment: Inhibition of PhKgamma1 (unknown origin) at 0.1 uM relative to control.
Phosphorylase b kinase gamma catalytic chain, skeletal muscle/heart isoform (Homo sapiens), sequence (Q16816 whole entry, looked up, canonical isoform): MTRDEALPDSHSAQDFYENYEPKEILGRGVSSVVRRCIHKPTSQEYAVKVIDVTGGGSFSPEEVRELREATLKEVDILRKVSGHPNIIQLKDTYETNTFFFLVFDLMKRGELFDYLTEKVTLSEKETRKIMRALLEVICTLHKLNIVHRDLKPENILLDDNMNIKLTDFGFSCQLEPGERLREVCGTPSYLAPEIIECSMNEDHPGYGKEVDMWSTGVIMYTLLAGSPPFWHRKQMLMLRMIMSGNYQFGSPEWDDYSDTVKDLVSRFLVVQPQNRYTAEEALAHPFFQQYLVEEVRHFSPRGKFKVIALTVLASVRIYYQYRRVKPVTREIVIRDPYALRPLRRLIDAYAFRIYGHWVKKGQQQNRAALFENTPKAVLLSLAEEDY
In test [15] the target is Serine/threonine-protein kinase NLK (Homo sapiens) (UniProt Q9UBE8). The test is described as follows: Inhibition of NLK (unknown origin) at 0.1 uM relative to control.
The target in test [16] is Casein kinase I isoform gamma-1 (Homo sapiens) (UniProt Q9HCP0). As to the kind of experiment: Inhibition of CK1gamma1 (unknown origin) at 0.1 uM relative to control.
Test [17] concerns the target Tyrosine-protein kinase receptor UFO (Homo sapiens) (UniProt P30530). The test is described as follows: Inhibition of Axl (unknown origin) at 0.1 uM relative to control.
The target of test [18] is Serine/threonine-protein kinase PLK1 (Homo sapiens) (UniProt P53350). The test is described as follows: Inhibition of PLK1 (unknown origin) at 0.1 uM relative to control.
Test [19] addresses Tyrosine-protein kinase receptor TYRO3 (Homo sapiens) (UniProt Q06418). As to the kind of experiment: Inhibition of Rse (unknown origin) at 0.1 uM relative to control.
The target of test [20] is MAP kinase-activated protein kinase 3 (Homo sapiens) (UniProt Q16644). As to the kind of experiment: Inhibition of MAPKAPK3 (unknown origin) at 0.1 uM relative to control.
Test [21] has as its target Leukocyte tyrosine kinase receptor (Homo sapiens) (UniProt P29376). The test is described as follows: Inhibition of LTK (unknown origin) at 0.1 uM relative to control.
The target in test [22] is Casein kinase I isoform delta (Homo sapiens) (UniProt P48730). As to the kind of experiment: Inhibition of CK1delta (unknown origin) at 0.1 uM relative to control.
The target of test [23] is Homeodomain-interacting protein kinase 1 (Homo sapiens) (UniProt Q86Z02). The test is described as follows: Inhibition of HIPK1 (unknown origin) at 0.1 uM relative to control.
The target in test [24] is cAMP-dependent protein kinase catalytic subunit PRKX (Homo sapiens) (UniProt P51817). The test is described as follows: Inhibition of PrKX (unknown origin) at 0.1 uM relative to control.
For test [25], the target named is Calcium/calmodulin-dependent protein kinase type IV (Homo sapiens) (UniProt Q16566). The test is described as follows: Inhibition of CamKIV (unknown origin) at 0.1 uM relative to control.
The target in test [26] is Focal adhesion kinase 1 (Homo sapiens) (UniProt Q05397). The test is described as follows: Inhibition of FAK (unknown origin) at 0.1 uM relative to control.
The target of test [27] is Ribosomal protein S6 kinase alpha-5 (Homo sapiens) (UniProt O75582). The test is described as follows: Inhibition of MSK1 (unknown origin) at 0.1 uM relative to control.
The target of test [28] is RAC-beta serine/threonine-protein kinase (Homo sapiens) (UniProt P31751). The test is described as follows: Inhibition of AKT2 (unknown origin) at 0.1 uM relative to control.
Test [29] addresses Receptor tyrosine-protein kinase erbB-2 (Homo sapiens) (UniProt P04626). As to the kind of experiment: Inhibition of ErbB2 (unknown origin) at 0.1 uM relative to control.
Test [30] has as its target Insulin receptor (Homo sapiens) (UniProt P06213). As to the kind of experiment: Inhibition of InsR (unknown origin) at 0.1 uM relative to control.
The target in test [31] is Dual specificity protein kinase CLK2 (Homo sapiens) (UniProt P49760). As to the kind of experiment: Inhibition of CLK2 (unknown origin) at 0.1 uM relative to control.
Test [32] has as its target Mitogen-activated protein kinase 12 (Homo sapiens) (UniProt P53778). The test is described as follows: Inhibition of p38gamma (unknown origin) at 0.1 uM relative to control.
Test [33] deals with G protein-coupled receptor kinase 3 (Homo sapiens) (UniProt P35626). The test is described as follows: Inhibition of GRK3 (unknown origin) at 0.1 uM relative to control.
The target in test [34] is Serine/threonine-protein kinase DCLK2 (Homo sapiens) (UniProt Q8N568). The test is described as follows: Inhibition of DCAMKL2 (unknown origin) at 0.1 uM relative to control.
For test [35], the target named is Vascular endothelial growth factor receptor 3 (Homo sapiens) (UniProt P35916). The test is described as follows: Inhibition of Flt4 (unknown origin) at 0.1 uM relative to control.
Test [36] concerns the target MAP kinase-activated protein kinase 5 (Homo sapiens) (UniProt Q8IW41). The test is described as follows: Inhibition of PRAK (unknown origin) at 0.1 uM relative to control.
Test [37] addresses G protein-coupled receptor kinase 5 (Homo sapiens) (UniProt P34947). The test is described as follows: Inhibition of GRK5 (unknown origin) at 0.1 uM relative to control.
Test [38] has as its target Cyclin-dependent kinase 5/CDK5 activator 1 (Homo sapiens) (UniProt Q00535+Q15078). As to the kind of experiment: Inhibition of CDK5/p35 (unknown origin) at 0.1 uM relative to control. It is filed as protein-complex assay.

Molecules are shown by their SMILES.

Mitogen-activated protein kinase 10 (Homo sapiens), sequence (P53779 whole entry): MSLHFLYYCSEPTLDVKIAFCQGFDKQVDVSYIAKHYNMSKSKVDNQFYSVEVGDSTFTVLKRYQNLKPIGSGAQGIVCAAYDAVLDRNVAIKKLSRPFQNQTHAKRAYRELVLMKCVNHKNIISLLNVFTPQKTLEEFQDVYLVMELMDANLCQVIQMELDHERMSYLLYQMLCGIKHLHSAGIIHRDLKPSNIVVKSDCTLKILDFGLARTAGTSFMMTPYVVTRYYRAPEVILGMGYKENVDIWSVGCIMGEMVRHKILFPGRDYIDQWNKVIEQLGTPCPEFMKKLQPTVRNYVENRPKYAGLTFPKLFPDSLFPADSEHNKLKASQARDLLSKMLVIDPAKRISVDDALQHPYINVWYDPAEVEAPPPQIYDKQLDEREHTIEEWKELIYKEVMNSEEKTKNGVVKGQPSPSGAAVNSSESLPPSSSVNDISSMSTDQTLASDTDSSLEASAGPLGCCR
Mitogen-activated protein kinase 14 (Homo sapiens), sequence (Q16539 whole entry, canonical isoform): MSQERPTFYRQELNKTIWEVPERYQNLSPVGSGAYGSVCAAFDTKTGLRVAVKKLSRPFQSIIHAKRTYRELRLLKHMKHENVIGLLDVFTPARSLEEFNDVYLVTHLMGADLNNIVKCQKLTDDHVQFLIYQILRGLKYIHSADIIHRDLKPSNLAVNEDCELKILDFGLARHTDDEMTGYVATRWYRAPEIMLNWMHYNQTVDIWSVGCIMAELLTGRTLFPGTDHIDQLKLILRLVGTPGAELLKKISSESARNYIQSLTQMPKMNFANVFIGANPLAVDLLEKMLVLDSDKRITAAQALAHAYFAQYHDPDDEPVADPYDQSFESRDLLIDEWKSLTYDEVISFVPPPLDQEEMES
Mitogen-activated protein kinase 8 (Homo sapiens), sequence (P45983 whole entry): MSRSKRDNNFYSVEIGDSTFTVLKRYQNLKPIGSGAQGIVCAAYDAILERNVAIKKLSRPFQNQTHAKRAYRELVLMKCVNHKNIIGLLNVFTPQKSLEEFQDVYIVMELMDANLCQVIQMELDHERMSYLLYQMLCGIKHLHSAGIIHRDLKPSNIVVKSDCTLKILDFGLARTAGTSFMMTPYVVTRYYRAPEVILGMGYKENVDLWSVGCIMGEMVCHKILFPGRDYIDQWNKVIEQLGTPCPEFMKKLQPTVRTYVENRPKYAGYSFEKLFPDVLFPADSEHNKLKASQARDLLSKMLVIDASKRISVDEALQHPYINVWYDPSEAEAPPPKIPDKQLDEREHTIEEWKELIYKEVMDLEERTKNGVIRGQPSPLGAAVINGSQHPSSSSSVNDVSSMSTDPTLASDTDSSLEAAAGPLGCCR
Mitogen-activated protein kinase 3 (Homo sapiens), sequence (P27361 whole entry): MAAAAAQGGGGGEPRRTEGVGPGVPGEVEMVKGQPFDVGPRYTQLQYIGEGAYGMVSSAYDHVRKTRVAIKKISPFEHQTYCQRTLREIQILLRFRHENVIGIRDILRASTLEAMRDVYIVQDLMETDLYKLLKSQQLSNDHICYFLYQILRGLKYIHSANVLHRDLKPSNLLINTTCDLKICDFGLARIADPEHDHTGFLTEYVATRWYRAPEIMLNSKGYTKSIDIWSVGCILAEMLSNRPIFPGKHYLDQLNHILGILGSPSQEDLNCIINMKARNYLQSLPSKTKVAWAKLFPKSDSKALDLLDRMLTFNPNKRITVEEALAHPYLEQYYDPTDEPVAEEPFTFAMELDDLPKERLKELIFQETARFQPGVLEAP
Serine/threonine-protein kinase PAK 3, sequence (O75914 whole entry, looked up): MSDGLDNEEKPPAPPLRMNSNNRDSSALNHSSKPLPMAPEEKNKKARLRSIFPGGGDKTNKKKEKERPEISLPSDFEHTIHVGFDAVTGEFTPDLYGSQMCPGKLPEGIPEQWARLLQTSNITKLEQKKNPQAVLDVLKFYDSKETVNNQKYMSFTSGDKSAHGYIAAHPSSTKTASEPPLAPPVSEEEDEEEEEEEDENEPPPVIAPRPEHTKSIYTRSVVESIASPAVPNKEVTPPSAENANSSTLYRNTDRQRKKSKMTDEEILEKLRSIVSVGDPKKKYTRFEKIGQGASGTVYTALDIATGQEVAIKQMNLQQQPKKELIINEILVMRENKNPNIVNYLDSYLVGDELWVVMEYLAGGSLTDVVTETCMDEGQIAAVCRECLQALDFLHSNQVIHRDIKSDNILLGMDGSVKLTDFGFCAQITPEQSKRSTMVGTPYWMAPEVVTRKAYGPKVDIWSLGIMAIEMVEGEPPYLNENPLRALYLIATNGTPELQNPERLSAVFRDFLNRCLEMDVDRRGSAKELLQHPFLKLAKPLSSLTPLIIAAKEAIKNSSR
Tyrosine-protein kinase receptor UFO (Homo sapiens), sequence (P30530 whole entry): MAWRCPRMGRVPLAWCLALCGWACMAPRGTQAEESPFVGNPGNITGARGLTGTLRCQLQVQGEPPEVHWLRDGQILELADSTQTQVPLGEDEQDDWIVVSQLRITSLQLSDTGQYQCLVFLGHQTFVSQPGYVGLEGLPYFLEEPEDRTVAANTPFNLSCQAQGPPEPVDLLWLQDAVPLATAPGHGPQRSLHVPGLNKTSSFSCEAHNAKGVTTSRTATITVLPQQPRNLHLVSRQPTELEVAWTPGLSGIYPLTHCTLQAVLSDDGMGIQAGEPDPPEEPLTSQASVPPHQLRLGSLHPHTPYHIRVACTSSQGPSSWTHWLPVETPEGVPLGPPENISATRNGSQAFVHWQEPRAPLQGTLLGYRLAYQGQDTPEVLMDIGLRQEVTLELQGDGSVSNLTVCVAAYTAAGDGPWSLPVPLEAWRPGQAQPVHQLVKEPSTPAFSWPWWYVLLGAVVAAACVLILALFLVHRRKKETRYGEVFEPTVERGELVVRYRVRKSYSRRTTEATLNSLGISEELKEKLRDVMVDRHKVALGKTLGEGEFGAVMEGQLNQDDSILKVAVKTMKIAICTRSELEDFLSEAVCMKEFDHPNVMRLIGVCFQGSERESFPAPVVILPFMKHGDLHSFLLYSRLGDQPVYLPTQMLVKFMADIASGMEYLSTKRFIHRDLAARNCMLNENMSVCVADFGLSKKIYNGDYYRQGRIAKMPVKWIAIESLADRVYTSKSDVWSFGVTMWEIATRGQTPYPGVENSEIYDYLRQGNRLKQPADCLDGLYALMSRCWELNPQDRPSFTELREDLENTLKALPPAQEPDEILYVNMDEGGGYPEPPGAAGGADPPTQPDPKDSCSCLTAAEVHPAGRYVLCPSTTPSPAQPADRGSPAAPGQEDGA
Mitogen-activated protein kinase 12 (Homo sapiens), sequence (P53778 whole entry): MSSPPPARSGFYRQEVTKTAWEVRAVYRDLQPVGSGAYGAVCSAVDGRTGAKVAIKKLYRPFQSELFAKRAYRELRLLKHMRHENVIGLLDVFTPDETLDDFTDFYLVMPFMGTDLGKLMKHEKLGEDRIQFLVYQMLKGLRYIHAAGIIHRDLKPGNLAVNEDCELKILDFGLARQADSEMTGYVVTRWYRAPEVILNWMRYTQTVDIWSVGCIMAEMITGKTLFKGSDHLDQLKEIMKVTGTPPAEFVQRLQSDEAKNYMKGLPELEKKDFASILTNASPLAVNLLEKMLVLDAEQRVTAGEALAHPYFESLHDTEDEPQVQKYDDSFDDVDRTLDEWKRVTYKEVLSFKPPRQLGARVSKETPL
MAP kinase-activated protein kinase 5 (Homo sapiens), sequence (Q8IW41 whole entry): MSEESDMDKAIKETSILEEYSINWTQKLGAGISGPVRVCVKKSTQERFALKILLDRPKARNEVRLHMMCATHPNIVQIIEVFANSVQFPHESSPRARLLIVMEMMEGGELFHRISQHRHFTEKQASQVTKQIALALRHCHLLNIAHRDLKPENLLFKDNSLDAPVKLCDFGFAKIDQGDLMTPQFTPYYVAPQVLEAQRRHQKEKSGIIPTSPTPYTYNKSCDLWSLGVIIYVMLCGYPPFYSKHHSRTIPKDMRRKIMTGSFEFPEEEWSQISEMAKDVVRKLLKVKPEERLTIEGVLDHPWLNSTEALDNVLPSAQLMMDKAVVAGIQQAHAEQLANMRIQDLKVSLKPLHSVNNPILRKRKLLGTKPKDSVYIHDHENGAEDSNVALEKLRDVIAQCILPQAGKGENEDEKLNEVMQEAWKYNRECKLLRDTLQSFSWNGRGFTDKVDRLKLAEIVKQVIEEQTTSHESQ

One may read the inhibition as the drop in the measured response relative to a control, in per cent. `CN1CCc2cc(-c3cnc4[nH]cc(C(=O)c5ccccc5Cl)c4c3)ccc2C1`: the inhibition in test [1] stood at 51%; in test [2], 17%; in test [3] it was 4.3%; in the test listed under Homo sapiens, 105%; in [4] it was 42.4%; in test [5] it was 2.3%. Moreover, the inhibition in [6] came to 85.5%; in [7], 38.3%; in test [8], 92.9%; in [9], 12.3%; in test [10] it was 92.6%; in test [11] it was 48.2%. The inhibition is 0% in test [12], 34.8% in test [13], 8.3% in test [14] and 5% in test [15].
In the case of `COCCNc1nc2ccc(C#CC3(O)CCCCC3)cc2n1-c1ccnc(N)n1`, the inhibition is 4.1% in [1]; 1.9% in test [16]; 2.7% in test [5]; 1.9% in test [17]; -2% in [18]; 1.4% in test [19]. Moreover, the inhibition in test [20] is 4.8%; in test [21], -0.9%; in [22], 6.6%; in test [23] it was 1.7%; in test [8] it was 1.9%; in test [9], 6.2%. The inhibition was 3.3% in test [10]; 5.3% in test [24]; -6.6% in test [25]; 3.5% in [26]; 4.2% in [27]; 4.4% in test [13]. Besides, the inhibition in test [28] is 3.6%; in test [14], 12.5%; in test [29] it was -5%; in [30], 3.5%; in test [31], 0%; in test [32] it was 8.1%. Further, the inhibition in test [33] was 1.1%; in test [34], 10.9%; in [35], 1%; in test [36], 5%; in test [37], 2.5%; in [38] it was -1.6%.

(Values after ChEMBL document CHEMBL5678812, “Inhibitors of p21-activated kinases (PAKs)” (J Med Chem, 2015).)
